Source: patent US9499550B2 (BRISTOL-MYERS SQUIBB COMPANY, priority 2012, dated 2016)
Where two headings read alike, the source gives them in different places.

Tests used:
[1] = system: HCV genotype 1b (Con1) replicon in HUH-7 cells; experiment: HCV replicon luciferase reporter assay, genotype 1b; type: cell-based; conditions: Hepatitis C virus, Huh-7, 72 h, HCV genotype 1b replicon luciferase assay, 3 days incubation
Procedure, shortened: (§1)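 Replicon inhibition for both genotypes was measured as Renilla luciferase signal (EnduRen, 7.5 μM final, 2 h) after 3-day, 37° C exposure of replicon-bearing HUH-7 cells in 4% FCS DMEM, 0.5% DMSO. The 1b construct carries S1179I; the 1a H77 construct carries P1496L and S2204I. Twenty-point, 3-fold dilutions were fitted four-parametrically for EC50, and CC50 was taken from multiplexed Cell Titer-Blue.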

[2] = system: HCV genotype 1a (H77 strain) replicon in HUH-7 cells; experiment: HCV replicon luciferase reporter assay, genotype 1a; type: cell-based; conditions: Hepatitis C virus, Huh-7, 72 h, HCV genotype 1a replicon luciferase assay, 3 days incubation
Procedure, shortened: as §1

[3] = range class, read-out: LE_1b (EC50, range)
[4] = range class, read-out: LE_1a (EC50, range)

Compound	EC50 [1, 3] [nM]	EC50 [2, 4] [nM]	EC50 ([1]; read-out: LE_1b (EC50)) [nM]	EC50 ([2]; read-out: LE_1a (EC50)) [nM]
COc1cc(F)cc2c(O[C@@H]3C[C@H]4C(=O)N[C@]5(C(=O)NS(=O)(=O)C6CC6)C[C@H]5/C=C\CC[C@H](C)C[C@@H](C)[C@H](NC(=O)OCC5(C)CC5)C(=O)N4C3)nccc12 [Compound 3171, (1-methylcyclopropyl)methyl ((2R,6S,7R,9S,13aS,14aR,16aS,Z)-14a-((cyclopropylsulfonyl)carbamoyl)-2-((7-fluoro-5-methoxyisoquinolin-1-yl)oxy)-7,9-dimethyl-5,16-dioxo-1,2,3,5,6,7,8,9,10,11,13a,14,14a,15,16,16a-hexadecahydrocyclopropa[e]pyrrolo[1,2-a][1,4]diazacyclopentadecin-6-yl)carbamate]	< 5.46	4.82 to 103		
COc1cc(F)cc2c(O[C@@H]3C[C@H]4C(=O)N[C@]5(C(=O)NS(=O)(=O)C6CC6)C[C@H]5/C=C\CC[C@@H](C)C[C@@H](C)[C@H](NC(=O)OCC5(C)CC5)C(=O)N4C3)nccc12 [Compound 3172, (1-methylcyclopropyl)methyl ((2R,6S,7R,9R,13aS,14aR,16aS,Z)-14a-((cyclopropylsulfonyl)carbamoyl)-2-((7-fluoro-5-methoxyisoquinolin-1-yl)oxy)-7,9-dimethyl-5,16-dioxo-1,2,3,5,6,7,8,9,10,11,13a,14,14a,15,16,16a-hexadecahydrocyclopropa[e]pyrrolo[1,2-a][1,4]diazacyclopentadecin-6-yl)carbamate]	< 5.46	< 5.46	1.18	1.04
COc1cc(F)cc2c(O[C@@H]3C[C@H]4C(=O)N[C@]5(C(=O)NS(=O)(=O)C6(CF)CC6)C[C@H]5/C=C\CC[C@H](C)C[C@@H](C)[C@H](NC(=O)OC(C)(C)C)C(=O)N4C3)nccc12 [Compound 3173, tert-butyl ((2R,6S,7R,9S,13aS,14aR,16aS,Z)-2-((7-fluoro-5-methoxyisoquinolin-1-yl)oxy)-14a-(((1-(fluoromethyl)cyclopropyl)sulfonyl)carbamoyl)-7,9-dimethyl-5,16-dioxo-1,2,3,5,6,7,8,9,10,11,13a,14,14a,15,16,16a-hexadecahydrocyclopropa[e]pyrrolo[1,2-a][1,4]diazacyclopentadecin-6-yl)carbamate]	4.82 to 103	4.82 to 103		
COc1cc(F)cc2c(O[C@@H]3C[C@H]4C(=O)N[C@]5(C(=O)NS(=O)(=O)C6(CF)CC6)C[C@H]5/C=C\CC[C@@H](C)C[C@@H](C)[C@H](NC(=O)OC(C)(C)C)C(=O)N4C3)nccc12 [Compound 3174, tert-butyl ((2R,6S,7R,9R,13aS,14aR,16aS,Z)-2-((7-fluoro-5-methoxyisoquinolin-1-yl)oxy)-14a-(((1-(fluoromethyl)cyclopropyl)sulfonyl)carbamoyl)-7,9-dimethyl-5,16-dioxo-1,2,3,5,6,7,8,9,10,11,13a,14,14a,15,16,16a-hexadecahydrocyclopropa[e]pyrrolo[1,2-a][1,4]diazacyclopentadecin-6-yl)carbamate]	< 5.46	< 5.46		
COc1cc(F)cc2c(O[C@@H]3C[C@H]4C(=O)N[C@]5(C(=O)NS(=O)(=O)C6(CF)CC6)C[C@H]5/C=C\CC[C@H](C)C[C@@H](C)[C@H](NC(=O)OC(C)(C)C(F)(F)F)C(=O)N4C3)nccc12 [Compound 3175, 1,1,1-trifluoro-2-methylpropan-2-yl((2R,6S,7R,9S,13aS,14aR,16aS,Z)-2-((7-fluoro-5-methoxyisoquinolin-1-yl)oxy)-14a-(((1-(fluoromethyl)cyclopropyl)sulfonyl)carbamoyl)-7,9-dimethyl-5,16-dioxo-1,2,3,5,6,7,8,9,10,11,13a,14,14a,15,16,16a-hexadecahydrocyclopropa[e]pyrrolo[1,2-a][1,4]diazacyclopentadecin-6-yl)carbamate]	4.82 to 103	4.82 to 103		
COc1cc(F)cc2c(O[C@@H]3C[C@H]4C(=O)N[C@]5(C(=O)NS(=O)(=O)C6(CF)CC6)C[C@H]5/C=C\CC[C@@H](C)C[C@@H](C)[C@H](NC(=O)OC(C)(C)C(F)(F)F)C(=O)N4C3)nccc12 [Compound 3176, 1,1,1-trifluoro-2-methylpropan-2-yl((2R,6S,7R,9R,13aS,14aR,16aS,Z)-2-((7-fluoro-5-methoxyisoquinolin-1-yl)oxy)-14a-(((1-(fluoromethyl)cyclopropyl)sulfonyl)carbamoyl)-7,9-dimethyl-5,16-dioxo-1,2,3,5,6,7,8,9,10,11,13a,14,14a,15,16,16a-hexadecahydrocyclopropa[e]pyrrolo[1,2-a][1,4]diazacyclopentadecin-6-yl)carbamate]	< 5.46	< 5.46		
COc1cc(F)cc2c(O[C@@H]3C[C@H]4C(=O)N[C@]5(C(=O)NS(=O)(=O)C6(CF)CC6)C[C@H]5/C=C\CC[C@@H](C)C[C@@H](C)[C@H](NC(=O)O[C@H](C)C(F)(F)F)C(=O)N4C3)nccc12 [Compound 3178, (R)-1,1,1-trifluoropropan-2-yl ((2R,6S,7R,9R,13aS,14aR,16aS,Z)-2-((7-fluoro-5-methoxyisoquinolin-1-yl)oxy)-14a-(((1-(fluoromethyl)cyclopropyl)sulfonyl)carbamoyl)-7,9-dimethyl-5,16-dioxo-1,2,3,5,6,7,8,9,10,11,13a,14,14a,15,16,16a-hexadecahydrocyclopropa[e]pyrrolo[1,2-a][1,4]diazacyclopentadecin-6-yl)carbamate]	< 5.46	< 5.46	0.61	3.16
COc1cc(F)cc2c(O[C@@H]3C[C@H]4C(=O)N[C@]5(C(=O)NS(=O)(=O)C6(CF)CC6)C[C@H]5/C=C\CC[C@H](C)C[C@@H](C)[C@H](NC(=O)OC(C)(C)C(C)(F)F)C(=O)N4C3)nccc12 [Compound 3179, 3,3-difluoro-2-methylbutan-2-yl((2R,6S,7R,9S,13aS,14aR,16aS,Z)-2-((7-fluoro-5-methoxyisoquinolin-1-yl)oxy)-14a-(((1-(fluoromethyl)cyclopropyl)sulfonyl)carbamoyl)-7,9-dimethyl-5,16-dioxo-1,2,3,5,6,7,8,9,10,11,13a,14,14a,15,16,16a-hexadecahydrocyclopropa[e]pyrrolo[1,2-a][1,4]diazacyclopentadecin-6-yl)carbamate]	4.82 to 103	4.82 to 103		
COc1cc(F)cc2c(O[C@@H]3C[C@H]4C(=O)N[C@]5(C(=O)NS(=O)(=O)C6(CF)CC6)C[C@H]5/C=C\CC[C@@H](C)C[C@@H](C)[C@H](NC(=O)OC(C)(C)C(C)(F)F)C(=O)N4C3)nccc12 [Compound 3180, 3,3-difluoro-2-methylbutan-2-yl((2R,6S,7R,9R,13aS,14aR,16aS,Z)-2-((7-fluoro-5-methoxyisoquinolin-1-yl)oxy)-14a-(((1-(fluoromethyl)cyclopropyl)sulfonyl)carbamoyl)-7,9-dimethyl-5,16-dioxo-1,2,3,5,6,7,8,9,10,11,13a,14,14a,15,16,16a-hexadecahydrocyclopropa[e]pyrrolo[1,2-a][1,4]diazacyclopentadecin-6-yl)carbamate]	< 5.46	< 5.46		
COc1cc2cc(-c3ccc(OC(C)C)cc3)nc(O[C@@H]3C[C@H]4C(=O)N[C@]5(C(=O)NS(=O)(=O)C6CC6)C[C@H]5/C=C\CC[C@H](C)C[C@@H](C)[C@H](NC(=O)OC(C)(C)C)C(=O)N4C3)c2cc1F [Compound 3181, tert-butyl ((2R,6S,7R,9S,13aS,14aR,16aS,Z)-14a-((cyclopropylsulfonyl)carbamoyl)-2-((7-fluoro-3-(4-isopropoxyphenyl)-6-methoxyisoquinolin-1-yl)oxy)-7,9-dimethyl-5,16-dioxo-1,2,3,5,6,7,8,9,10,11,13a,14,14a,15,16,16a-hexadecahydrocyclopropa[e]pyrrolo[1,2-a][1,4]diazacyclopentadecin-6-yl)carbamate]	< 5.46	4.82 to 103		
COc1cc2cc(-c3ccc(OC(C)C)cc3)nc(O[C@@H]3C[C@H]4C(=O)N[C@]5(C(=O)NS(=O)(=O)C6CC6)C[C@H]5/C=C\CC[C@@H](C)C[C@@H](C)[C@H](NC(=O)OC(C)(C)C)C(=O)N4C3)c2cc1F [Compound 3182, tert-butyl ((2R,6S,7R,9R,13aS,14aR,16aS,Z)-14a-((cyclopropylsulfonyl)carbamoyl)-2-((7-fluoro-3-(4-isopropoxyphenyl)-6-methoxyisoquinolin-1-yl)oxy)-7,9-dimethyl-5,16-dioxo-1,2,3,5,6,7,8,9,10,11,13a,14,14a,15,16,16a-hexadecahydrocyclopropa[e]pyrrolo[1,2-a][1,4]diazacyclopentadecin-6-yl)carbamate]	< 5.46	< 5.46		
COc1cc2cc(-c3ccc(OC(C)C)cc3)nc(O[C@@H]3C[C@H]4C(=O)N[C@]5(C(=O)NS(=O)(=O)C6(C)CC6)C[C@H]5/C=C\CC[C@H](C)C[C@@H](C)[C@H](NC(=O)OC(C)(C)C)C(=O)N4C3)c2cc1F [Compound 3183, tert-butyl ((2R,6S,7R,9S,13aS,14aR,16aS,Z)-2-((7-fluoro-3-(4-isopropoxyphenyl)-6-methoxyisoquinolin-1-yl)oxy)-7,9-dimethyl-14a-(((1-methylcyclopropyl)sulfonyl)carbamoyl)-5,16-dioxo-1,2,3,5,6,7,8,9,10,11,13a,14,14a,15,16,16a-hexadecahydrocyclopropa[e]pyrrolo[1,2-a][1,4]diazacyclopentadecin-6-yl)carbamate]	< 5.46	4.82 to 103		
